Assay: Contact angle of a water drop on a compression-molded product
Assay type: physicochemical
Conditions: purified water drop on 300 mg, 13 mm compression-molded product (1 ton/cm^2), 15 seconds after placing
Description: The “water-repellent physiologically active substance” to be used in the present invention is exemplified by a substance difficult to get wet, or having a large contact angle, and the like. A specific example thereof is a physiologically active substance having a contact angle of not less than 40 degrees, preferably not less than 60 degrees, more preferably not less than 80 degrees, as measured by forming a compression-molded product (300 mg) having a diameter of 13 mm with Shimadzu autograph (AG-5000B, manufactured by Shimadzu Corporation) at a load of 1 ton/cm^2, placing one drop of purified water on the surface thereof with a syringe, and determining the contact angles of the water drop at 15 seconds after placing with an automatic contact angle meter (CA-Z, manufactured by Kyowa Interface Science Co., Ltd.), and the like. The contact angle of a representative highly water-repellent substance, magnesium stearate, compound A to be mentioned later: (5-(N-benzyl-N-methylaminomethyl)-1-(2,6-difluorobenzyl)-6-[4-(3-methoxyureido)phenyl]-3-phenylthieno[2,3-d]jpyrimidine-2,4(1H,3H)-dione), and compound B to be mentioned later (3-(N-benzyl-N-methylaminomethyl)-4,7-dihydro-5-isobutyryl-7-(2,6-difluorobenzyl)-2-[4-[(1-hydroxycyclopropyl)carbonylamino]phenyl]-4-oxothieno[2,3-b]pyridine) as measured according to the aforementioned method were about 96 degrees, about 90 degrees and about 88 degrees respectively.

Row | contact angle | Molecule
1 | about 90 degrees | CONC(=O)Nc1ccc(-c2sc3c(c2CN(C)Cc2ccccc2)c(=O)n(-c2ccccc2)c(=O)n3Cc2c(F)cccc2F)cc1 [compound A, 5-(N-benzyl-N-methylaminomethyl)-1-(2,6-difluorobenzyl)-6-[4-(3-methoxyureido)phenyl]-3-phenylthieno[2,3-d]pyrimidine-2,4(1H,3H)-dione]
2 | about 88 degrees | CC(C)C(=O)c1cn(Cc2c(F)cccc2F)c2sc(-c3ccc(NC(=O)C4(O)CC4)cc3)c(CN(C)Cc3ccccc3)c2c1=O [compound B, 3-(N-benzyl-N-methylaminomethyl)-4,7-dihydro-5-isobutyryl-7-(2,6-difluorobenzyl)-2-[4-[(1-hydroxycyclopropyl)carbonylamino]phenyl]-4-oxothieno[2,3-b]pyridine]

Row | Molecule | contact angle
3 | magnesium stearate [reference compound] | about 96 degrees
